From patent US12601743B2, “Methods for treating drug resistant cancers” (The Regents of the University of California, priority 2017, dated 2026)
Entries after “also recorded” stand apart in the source; their conditions may differ.

Assays:
[1] = test system: YAP/TAZ expression in GBM cells; assay: YAP/TAZ expression after PAK4 inhibition (immunoblot); assay type: cell-based, human; details: FIG. 3H, FIG. 14C; U87MG, LN229
Experimental: Chemicals. Verteporfin (YAP inhibitor) was purchased from Sigma and used at the concentration of 0.5-10 μM for 24 hours. PF-03758309 (PAK4 inhibitor) was purchased from Chemietek and used at the concentration of 50 nM-1000 nM for 24 hours.
Immunoblotting. Proteins were extracted in RIPA buffer and quantified using the Pierce BCA kit (Thermo Fisher). 10-30 μg of protein was boiled in NuPage buffer (Thermo Fisher) and loaded onto a denaturing SDS-polyacrylamide gel (10%), transferred to PVDF membranes and blotted with anti-mouse or -rabbit HRP-conjugated secondary antibodies (Bio-Rad). The following antibodies were used for immunoblotting: β3 (Cell Signaling), Glut3 (Santa Cruz Biotechnology), YAP (Santa Cruz) YAP-XP (cell signaling), TAZ (Cell Signaling), PAK4 and pPAK4 (Cell Signaling), and Vinculin and β-actin (Sigma-Aldrich) as loading controls.

[2] = test system: Ge738, GBM6, Ge970.2 and Ge885 GSCs; assay: GSC cell viability (CELLTITER-GLO), GSC with low β3/Glut3 expression; assay type: cell-based, human; details: GSC with low β3/Glut3 expression (Ge738, GBM6, Ge970.2, Ge885); FIG. 5D, 5H
Experimental: (§1) Cell viability assay. U87MG, LN229, and LN18 cells were seeded at 1K cells per well in black 96-well plates in DMEM medium (no glucose) with 10% dialyzed FBS±glucose (0-4.5 g/L). Cell viability was determined by Alamar Blue dye (Life Technologies) according to manufacturer's instructions. For GSCs, cells were seeded at 10K cells per well in white 96-well low attachment plates in GSC medium±glucose (0-4.5 g/L). Viable cell numbers were evaluated using a CELLTITER-GLO™ assay kit (Promega). Each condition consisted of, at least, three replicate wells and data were expressed as relative luciferase units or as the percentage of survival of control cells.

[3] = test system: GBM14, GBM64 and GBM85 GSCs; assay: GSC cell viability (CELLTITER-GLO), Mayo Clinic models predicted Glut3 addicted; assay type: cell-based, human; details: Classical or Proneural, Glut3 addicted signature, FIG. 17B
Experimental: as §1

[4] = test system: glioblastoma; details: GBM patients; phase III CENTRIC, phase II CORE (Stupp et al., 2014); cited from earlier work
[5] = test system: GBM150 and GBM59 GSCs; assay: GSC cell viability (CELLTITER-GLO), Mayo Clinic models with Glut3 non-addicted signature; assay type: cell-based, human; details: mesenchymal, FIG. 17B
Experimental: as §1

[6] = test system: Ge479 orthotopic tumors; assay: Orthotopic brain tumor xenograft survival, Ge479; assay type: in vivo, mice; details: Ge479 (Glut3 addicted); systemic treatment; FIG. 21
Experimental: Orthotopic brain tumor xenografts. Intracranial transplantation of U87MG or GSC (Ge518 and Ge479) into 6-8-week-old nu/nu nude immunocompromised mice (Charles River Labs) was performed in accordance with the UCSD Institutional Animal Care and Use Committee. U87MG cells bearing β3, Glut3 shRNA or shβ3 ectopically expressing Glut3 as well as shRNA control (15 mice per group) were orthotopically transplanted following washing and resuspension in PBS. Ge479 and Ge518 were orthotopically transplanted following washing and resuspension in DMEM/F12. Mice were treated with vehicle (PBS) or cilengitide (10 mg kg 1 or 30 mg kg 1; 8 mice per group) five days per week. Briefly, with a stereotaxic frame (Stoelting Co.), a small burr hole was made in the skull 2 mm anterior and 2 mm lateral to the bregma. A 31-gauge Hamilton needle/syringe was inserted 3 mm, and 0.25 μl/minute was dispensed (10^5 tumor cells in 2 μl media). A total of 1×10^5 and 3×10^5 cells in 2 μl was injected respectively for U87MG cells and GSCs respectively.

[7] = test system: GBM26 and GBM12 GSCs; assay: GSC cell viability (CELLTITER-GLO), Mayo Clinic β3/Glut3-low models; assay type: cell-based, human; details: FIG. 17A-B
Experimental: as §1

Structure (SMILES)	YAP/TAZ expression [1]	effect on cell viability [2]	sensitivity (cell viability) [3]	overall survival in clinical trials [4]	sensitivity (cell viability) [5]	survival of mice bearing orthotopic tumors [6]	effect on cell viability [7]
Cc1nc(Nc2n[nH]c3c2CN(C(=O)N[C@H](CN(C)C)c2ccccc2)C3(C)C)c2sccc2n1 [PF-03758309]	decrease of YAP/TAZ expression						
CC(C)[C@H]1C(=O)N[C@@H](CCCN=C(N)N)C(=O)NCC(=O)N[C@@H](CC(=O)O)C(=O)N[C@H](Cc2ccccc2)C(=O)N1C [cilengitide, 2-[(2S,5R,8S,11S)-5-benzyl-11-{3-[(diaminomethylidene)amino]propyl}-7-methyl-3,6,9,12,15-pentaoxo-8-(propan-2-yl)-1,4,7,10,13-pentaazacyclopentadecan-2-yl]acetic acid]		moderate enhancement of viability	largely sensitive; also recorded: sensitivity to integrin blockade	failed to meet overall survival endpoints; also recorded: failed to produce a significant overall survival benefit	largely resistant; also recorded: not affected	dramatically prolongs the survival	no effect or a moderate enhancement of viability
